Test results reported in patent US20110092544A1, “FUNGICIDAL PYRIDINES” (E.I. DU PONT DE nemours and company, priority 2008, published 2011).

Tests used:
Format in all cases: in vivo
Alternaria solani = test: Test E: tomato early blight, preventive spray on tomato seedlings, visual disease rating
Source text: (§1) General protocol for preparing test suspensions for Tests A-H: The test compounds were first dissolved in acetone in an amount equal to 3% of the final volume and then suspended at the desired concentration (in ppm) in acetone and purified water (50/50 mix) containing 250 ppm of the surfactant Trem® 014 (polyhydric alcohol esters). The resulting test suspensions were then used in tests A-H. Spraying a 200 ppm test suspension to the point of run-off on the test plants was the equivalent of a rate of 500 g/ha.
(§2) The test suspension was sprayed to the point of run-off on tomato seedlings. The following day the seedlings were inoculated with a spore suspension of Alternaria solani (the causal agent of tomato early blight) and incubated in a saturated atmosphere at 27° C. for 48 h, and then moved to a growth chamber at 20° C. for 5 days, after which time disease ratings were visually made.
(§3) Results for Tests A-H are given in Table A. In the table, a rating of 100 indicates 100% disease control and a rating of 0 indicates no disease control (relative to the controls). A dash (-) indicates no test results. All results are for compounds tested at 200 ppm except where the compound number is followed by “*” which indicates the compound was tested at 40 ppm.

[1] = system: Erysiphe graminis f. sp. tritici; test: Test A: wheat powdery mildew, preventive spray on wheat seedlings, visual disease rating
Source text: as §1
The test suspension was sprayed to the point of run-off on wheat seedlings. The following day the seedlings were inoculated with a spore dust of Erysiphe graminis f. sp. tritici (the causal agent of wheat powdery mildew) and incubated in a growth chamber at 20° C. for 8 days, after which time disease ratings were visually made.
as §3

Septoria tritici = test: Test C: wheat leaf blotch, preventive spray on wheat seedlings, visual disease rating
Source text: as §1
as §2, with “wheat” for “tomato”, “Septoria tritici” for “Alternaria solani”, “wheat leaf blotch)” for “tomato early blight)”, “20°” for “27°”, “and” for “and then”, “19 additional” for “5”
as §3

[2] = system: Puccinia recondite f. sp. tritici; test: Test B: wheat leaf rust, preventive spray on wheat seedlings, visual disease rating
Source text: as §1
(§4) The test suspension was sprayed to the point of run-off on wheat seedlings. The following day the seedlings were inoculated with a spore suspension of Puccinia recondite f. sp. tritici (the causal agent of wheat leaf rust) and incubated in a saturated atmosphere at 20° C. for 24 h, and then moved to a growth chamber at 20° C. for 7 days, after which time disease ratings were visually made.
as §3

Septoria nodorum = test: Test D: wheat glume blotch, preventive spray on wheat seedlings, visual disease rating
Source text: as §1
as §4, with “Septoria nodorum” for “Puccinia recondite f. sp. tritici”, “glume blotch)” for “leaf rust)”, “48” for “24”
as §3

Botrytis cinerea = test: Test F: tomato botrytis, preventive spray on tomato seedlings, visual disease rating
Source text: as §1
as §2, with “Botrytis cinerea” for “Alternaria solani”, “botrytis)” for “early blight)”, “in” for “in a”, “20°” for “27°”, “24°” for “20°”, “3 additional” for “5”
as §3

[3] = 200 ppm, 100 = 100% disease control, 0 = no control
[4] = 40 ppm (compound number followed by *)
[5] = Alternaria solani, 168 h, 200 ppm, 100 = 100% disease control, 0 = no control
[6] = Blumeria graminis, 192 h, 200 ppm, 100 = 100% disease control, 0 = no control
[7] = Zymoseptoria tritici, 504 h, 200 ppm, 100 = 100% disease control, 0 = no control
[8] = 192 h, 200 ppm, 100 = 100% disease control, 0 = no control
[9] = Parastagonospora nodorum, 216 h, 200 ppm, 100 = 100% disease control, 0 = no control
[10] = Botrytis cinerea, 120 h, 200 ppm, 100 = 100% disease control, 0 = no control

| SMILES | Test E rating (% disease control) (Alternaria solani; [3]) [%] | Test A rating (% disease control) [1, 3] [%] | Test C rating (% disease control) (Septoria tritici; [3]) [%] | Test B rating (% disease control) [2, 3] [%] | Test D rating (% disease control) (Septoria nodorum; [3]) [%] | Test F rating (% disease control) (Botrytis cinerea; [3]) [%] | also measured |
| --- | --- | --- | --- | --- | --- | --- | --- |
| COc1ccc(-c2c(C)ncc(C(C)C)c2-c2cc(OC)cc(OC)c2)cc1 [Compound 65] | 100 | 80 | 96 | 98 | 0 | 99 |  |
| CCOC(=O)c1cnc(C)c(-c2c(F)ccc(F)c2F)c1-c1cc(OC)cc(OC)c1 [Compound 66] | 99 | 99 | 98 | 98 | 0 | 95 |  |
| COc1cc(OC)cc(-c2c(C=O)cnc(C)c2-c2c(F)ccc(OC)c2F)c1 [Compound 113] |  |  |  |  |  |  | Test E rating (% disease control) (Alternaria solani; [4]): 9%; Test A rating (% disease control) [1, 4]: 0%; Test C rating (% disease control) (Septoria tritici; [4]): 76%; Test B rating (% disease control) [2, 4]: 89%; Test D rating (% disease control) (Septoria nodorum; [4]): 0%; Test F rating (% disease control) (Botrytis cinerea; [4]): 79% |
| COc1cc(OC)cc(-c2c(C(C)(C)O)cnc(C)c2-c2c(F)cc(OC)cc2F)c1 [Compound 72, 5-(2,6-difluoro-4-methoxyphenyl)-4-(3,5-dimethoxyphenyl)-α,α,6-trimethyl-3-pyridinemethanol] |  |  |  |  |  |  | pest or weed control at 200 ppm (Alternaria solani; [5]): 100%; pest or weed control at 200 ppm [1, 6]: 100%; pest or weed control at 200 ppm (Septoria tritici; [7]): 95%; pest or weed control at 200 ppm [2, 8]: 100%; pest or weed control at 200 ppm (Septoria nodorum; [9]): 100%; pest or weed control at 200 ppm (Botrytis cinerea; [10]): 99% |
| COc1ccc(-c2c(C)ncc(C(C)CO)c2-c2cc(OC)cc(OC)c2)cc1 (stereo not drawn) [Compound 82] | 98 | 97 | 95 | 98 | 69 | 98 |  |
| COc1cc(OC)cc(-c2c(C(C)O)cnc(C)c2-c2c(F)cc(F)cc2F)c1 (stereo not drawn) [Compound 107] | 100 | 100 | 98 | 100 | 98 | 99 |  |
| COc1cc(OC)cc(-c2c(CN3CCCCC3)cnc(C)c2-c2c(F)cc(F)cc2F)c1 [Compound 111] | 0 | 93 | 91 | 97 | 0 | 99 |  |
| COc1cc(OC)cc(-c2c(C(C)=O)cnc(C)c2-c2c(F)cc(OC)cc2F)c1 [Compound 71] | 100 | 98 | 95 | 100 | 81 | 99 |  |
| COc1cc(OC)cc(-c2c(C(C)(C)OC(C)=O)cnc(C)c2-c2c(F)cc(F)cc2F)c1 [Compound 102] | 91 | 98 | 97 | 92 | 0 | 98 |  |
| COc1cc(OC)cc(-c2c(C(O)C(C)C)cnc(C)c2-c2c(F)cc(F)cc2F)c1 (stereo not drawn) [Compound 103] | 100 | 100 | 95 | 100 | 98 | 99 |  |
| COc1cc(OC)cc(-c2c(CO)cnc(C)c2-c2c(F)cc(F)cc2F)c1 [Compound 96, 4-(3,5-dimethoxyphenyl)-6-methyl-5-(2,4,6-trifluorophenyl)-3-pyridinemethanol] |  |  |  |  |  |  | pest or weed control at 200 ppm (Alternaria solani; [5]): 99%; pest or weed control at 200 ppm [1, 6]: 98%; pest or weed control at 200 ppm (Septoria tritici; [7]): 94%; pest or weed control at 200 ppm [2, 8]: 96%; pest or weed control at 200 ppm (Septoria nodorum; [9]): 0%; pest or weed control at 200 ppm (Botrytis cinerea; [10]): 98% |
| CCOC(=O)c1cnc(C)c(-c2c(F)cc(OC)cc2F)c1-c1cc(OC)cc(OC)c1 [Compound 70] | 79 | 94 | 93 | 95 | 0 | 97 |  |
| COc1cc(OC)cc(-c2c(C(C)CO)cnc(C)c2-c2c(F)cc(OC)cc2F)c1 (stereo not drawn) [Compound 92] |  |  |  |  |  |  | Test E rating (% disease control) (Alternaria solani; [4]): 100%; Test A rating (% disease control) [1, 4]: 76%; Test C rating (% disease control) (Septoria tritici; [4]): 96%; Test B rating (% disease control) [2, 4]: 99%; Test D rating (% disease control) (Septoria nodorum; [4]): 82%; Test F rating (% disease control) (Botrytis cinerea; [4]): 94% |
| C=C(C)c1cnc(C)c(-c2ccc(OC)cc2)c1-c1cc(OC)cc(OC)c1 [Compound 64] | 100 | 85 | 95 | 99 | 90 | 99 |  |
| COc1cc(OC)cc(-c2c(C(C)=NO)cnc(C)c2-c2c(F)cc(F)cc2F)c1 (single isomer, unassigned) [Compound 117] |  |  |  |  |  |  | Test E rating (% disease control) (Alternaria solani; [4]): 99%; Test A rating (% disease control) [1, 4]: 93%; Test C rating (% disease control) (Septoria tritici; [4]): 99%; Test B rating (% disease control) [2, 4]: 100%; Test D rating (% disease control) (Septoria nodorum; [4]): 82%; Test F rating (% disease control) (Botrytis cinerea; [4]): 99% |
| COc1ccc(-c2c(C)ncc(C(C)(O)CO)c2-c2cc(OC)cc(OC)c2)cc1 (single isomer, unassigned) [Compound 85] | 0 | 43 | 43 | 61 | 0 | 96 |  |
| COc1cc(OC)cc(-c2c(C3CCCC3)cnc(C)c2-c2c(F)cccc2F)c1 [Compound 67] |  |  |  |  |  |  | Test E rating (% disease control) (Alternaria solani; [4]): 99%; Test A rating (% disease control) [1, 4]: 100%; Test C rating (% disease control) (Septoria tritici; [4]): 95%; Test B rating (% disease control) [2, 4]: 100%; Test D rating (% disease control) (Septoria nodorum; [4]): 0%; Test F rating (% disease control) (Botrytis cinerea; [4]): 99% |
| COc1cc(OC)cc(-c2c(-c3ccccc3)cnc(C)c2-c2c(F)cc(F)cc2F)c1 [Compound 121, 4-(3,5-dimethoxyphenyl)-2-methyl-5-phenyl-3-(2,4,6-trifluorophenyl)pyridine] |  |  |  |  |  |  | pest or weed control at 40 ppm (Alternaria solani; Alternaria solani, 168 h, 40 ppm (compound number followed by *)): 99%; pest or weed control at 40 ppm ([1]; Blumeria graminis, 192 h, 40 ppm (compound number followed by *)): 99%; pest or weed control at 40 ppm (Septoria tritici; Zymoseptoria tritici, 504 h, 40 ppm (compound number followed by *)): 99%; pest or weed control at 40 ppm ([2]; 192 h, 40 ppm (compound number followed by *)): 100%; pest or weed control at 40 ppm (Septoria nodorum; Parastagonospora nodorum, 216 h, 40 ppm (compound number followed by *)): 94%; pest or weed control at 40 ppm (Botrytis cinerea; Botrytis cinerea, 120 h, 40 ppm (compound number followed by *)): 100% |
| CCC(O)c1cnc(C)c(-c2c(F)cc(F)cc2F)c1-c1cc(OC)cc(OC)c1 (stereo not drawn) [Compound 99] | 100 | 100 | 94 | 100 | 100 | 98 |  |
| COc1cc(OC)cc(-c2c(Cn3cc(C#N)cn3)cnc(C)c2-c2c(F)cc(F)cc2F)c1 [Compound 123] |  |  |  |  |  |  | Test E rating (% disease control) (Alternaria solani; [4]): 0%; Test A rating (% disease control) [1, 4]: 0%; Test C rating (% disease control) (Septoria tritici; [4]): 53%; Test B rating (% disease control) [2, 4]: 0%; Test D rating (% disease control) (Septoria nodorum; [4]): 0%; Test F rating (% disease control) (Botrytis cinerea; [4]): 69% |
